Converted amounts (≈) assume the structure as drawn. Like-named read-outs stand apart in the source and are kept apart here.
How the values were obtained:
MSSA = assay: antibacterial activity (MIC) by agar plate dilution method, MSSA strains; assay type: cell-based, Methicillin-sensitive Staphylooccus aureus; conditions: Staphylococcus aureus, 20 h, MSSA (7 strains); for MIC50: read-out: MIC50; for MIC: MSSA, range over strains, read-out: MIC
Experimental: (§1) The screening of the present invention may be carried out according to the agar plate dilution method designated by the Japan Society of Chemotherapy (Chemotherapy 29(1), 76-79 (1981)). Mueller-Hinton agar base semi-synthetic medium may be used for a plate culture medium for a sensitivity test together with an inoculating bacteria solution which may be prepared by culturing bacteria to be tested at 37° C. for 20 hours diluted with 8.5% by isotonic sodium chloride solution to 10^6 CFU/ml. Diluted β-lactam solutions are prepared by two times serial dilution. 1 ml of the diluted β-lactam solution and 1 ml of a predetermined concentration of a sample to be tested are added to 8 ml of the plate culture medium for a sensitivity test. To the resultant plate culture medium for sensitivity test, the bacteria are inoculated using a microplanter (SAKUMASEISAKUSYO Co.), cultured for 20 hours at 37° C. followed by assessing for a minimum inhibition concentration (MIC).
(§2) (A) Antibacterial activities of ether extract from Scutellaria barbata, SB-1 (isolated from Scutellaria barbata), apigenin (authentic sample) and luteolin (authentic sample) were shown in Table 1.
(§3) Flavones were dissolved in methanol and the others were dissolved in 0.1 N NaOH. A method for determination of antibacterial activity is, as described above, an agar plate dilution method designated by the Japan Society of Chemotherapy (Chemotherapy 29(1), 76-79 (1981)) to determine MIC value. MIC80 is a concentration at which a strain is prohibited to proliferate by 80% and MIC50 is a concentration at which a strain is prohibited to proliferate by 50%.

MRSA [1] = assay: antibacterial activity (MIC) by agar plate dilution method, MRSA strains; assay type: cell-based, methicillin-resistant Staphylococcus aureus; conditions: Staphylococcus aureus, 20 h, MRSA (20 strains); for MIC50: read-out: MIC50; for MIC: MRSA, range over strains, read-out: MIC
Experimental: as §1, §2, §3

MRSA [2] = assay: antibacterial activity of antibiotics alone and in the presence of apigenin (4 μg/ml), MRSA; assay type: cell-based, methicillin-resistant Staphylococcus aureus; conditions: for MIC / MIC50: Staphylococcus aureus, MRSA, 20 h
Experimental: as §1
(D) Then use of 4 μg/ml of apigenin and other antibiotics at the same time was studied. The antibiotics are penicillin , ampicillin, cephalothin, cefoxitin, cefuroxime, cefotaxime, vancomycin, streptomycin, chloramphenicol, kanamycin, erythromycin, nalixic acid and tetracycline.

MRSA No. 5 = assay: effect of flavone on antibacterial activity of antibiotics against MRSA No. 5 in bouillon (broth microdilution); assay type: cell-based, methicillin-resistant Staphylococcus aureus; conditions: for MIC: Staphylococcus aureus, MRSA, 20 h; for inhibitory effect on resistance of MRSA No.5 (in words): in the presence of flavone 0.5 mM
Experimental: Alternatively, the screening of the present invention may be carried out according to the broth microdilution method designated by the Japan Society of Chemotherapy (Chemotherapy 38(1), 102-105 (1990)). Muellar-Hinton broth is used as a culture medium for the sensitivity test, and 50 mg/ml of calcium(Ca) ion, 25 mg/ml of magnesium(Mg) ion, and 2% sodium chloride (NaCl) are added thereto. An inoculating bacteria solution may be prepared by culturing bacteria to be tested in Mueller-Hinton broth at 37° C. for 20 hours and diluting with Mueller-Hinton broth to 10^5 CFU/ml final concentration of inoculating bacteria. Diluted β-lactam solution is prepared by two times serial dilution series. 10 μl of the diluted β-lactam solution and 10 μl of a predetermined concentration of a sample of bacteria to be tested are added to mix with 80 μl of the culture medium for the sensitivity test. To the resultant plate culture medium for sensitivity test, the inoculating bacteria are added and culturing is carried out for 20 hours at 37° C. and then assessment for a minimum inhibition concentration (MIC) is carried out. A minimum inhibition concentration means the minimum concentration of β-lactam at which growth of bacteria is not recognized by the naked eye.
(G) Antibacterial activity of 6 β-lactams, that is, cephalothin, cefuroxime, cefotaxime, cefoxitin, streptomycin and vancomycin, against MRSA in the presence of 0.5 mM flavone was studied in bouillon.
Muellar-Hinton broth was used as a culture medium for the sensitivity test, and 50 mg/ml of calcium (Ca) ion, 25 mg/ml of maqnesium (Mg) ion, 2% sodium chloride (NaCl) were added thereto. An inoculating bacteria solution was prepared by culturing bacteria to be tested with Mueller-Hinton broth at 37° C. for 20 hours and diluting with Mueller-Hinton broth to 10^5 CFU/ml final concentration of inoculating bacteria. Diluted β-lactam solutions were prepared in two times serial dilutions starting from 10 mM. Ten microliters of the diluted β-lactam solution and 10 μl of 5 mM of flavone were mixed with 80 μl of the culture medium for the sensitivity test in a microplate having U-shaped wells and samples of bacteria to be tested were added thereto. The mixture was cultured 20 hours at 37° C. and then assessed for minimum inhibition concentration (MIC). Minimum inhibition concentration means minimum concentration of a β-lactum at which growth of bacteria is inhibited to the extent that bacteria is not recognized by the naked eye.

[3] = Antibiotics alone, read-out: MIC50
[4] = antibiotic with Apigenin (4 μg/ml), read-out: MIC
[5] = antibiotic with Apigenin (4 μg/ml), read-out: MIC50
[6] = Concentration of flavone 0 mM, read-out: MIC
[7] = Concentration of flavone 0.5 mM, read-out: MIC
[8] = antibiotic with Apigenin (4 μg/ml)

SMILES | MIC50 (MSSA) | MIC (MSSA) | MIC50 (MRSA [1]) | MIC (MRSA [1]) | MIC50 (MRSA [2]; [3]) | MIC50 (MRSA [2]; [5]) | inhibitory effect on resistance of MRSA No.5 (in words) (MRSA No. 5) | also measured
COc1ccc(-c2cc(=O)c3c(O)cc(O)cc3o2)cc1 [Acacetin, acacetin] | > 250 µg/mL | > 250 µg/mL | > 250 µg/mL | > 250 µg/mL |  |  |  | 
CO[C@@]1(NC(=O)Cc2cccs2)C(=O)N2C(C(=O)O)=C(COC(N)=O)CS[C@@H]21 [Cefoxitin, cefoxitin] |  |  |  |  | 250 µg/mL | 31.3 µg/mL | showed the inhibitory effect remarkably | MIC (MRSA [2]; [4]): 2 to 125 µg/mL; inhibition of β-lactam resistant MRSA / improvement of antibacterial effect with apigenin (in words) (MRSA [2]; apigenin 4 μg/ml or less than its MIC): inhibited β-lactam resistant MRSA; MIC (MRSA No. 5; [6]): 1000 µM (≈ 427 µg/mL); MIC (MRSA No. 5; [7]): < 0.98 µM
CO/N=C(\C(=O)N[C@@H]1C(=O)N2C(C(=O)O)=C(COC(N)=O)CS[C@H]12)c1ccco1 [Cefuroxime, cefuroxime] |  |  |  |  | > 250 µg/mL | > 250 µg/mL | showed inhibitory effect on resistance of MRSA No.5 | MIC (MRSA No. 5; [6]): > 1000 µM; MIC (MRSA No. 5; [7]): 7.8 µM (≈ 3.31 µg/mL)
CC(=O)OCC1=C(C(=O)O)N2C(=O)[C@@H](NC(=O)Cc3cccs3)[C@H]2SC1 [Cephalothin, cephalothin] |  |  |  |  |  |  | showed inhibitory effect on resistance of MRSA No.5 | MIC (MRSA [2]; Antibiotics alone): 0.98 to 250 µg/mL; MIC50 (MRSA [2]; Antibiotics alone): 125 µg/mL; MIC (MRSA [2]; [8]): 0.98 to 250 µg/mL; MIC50 (MRSA [2]; [8]): 125 µg/mL; MIC (MRSA No. 5; Concentration of flavone 0 mM): 500 µM (≈ 198 µg/mL); MIC (MRSA No. 5; Concentration of flavone 0.5 mM): 1.95 µM (≈ 0.773 µg/mL)
O=C(N[C@H](CO)[C@H](O)c1ccc([N+](=O)[O-])cc1)C(Cl)Cl [Chloramphenicol, chloramphenicol] |  |  |  |  |  |  |  | MIC (MRSA [2]; Antibiotics alone): 2 to 62.5 µg/mL; MIC50 (MRSA [2]; Antibiotics alone): 7.8 µg/mL; MIC (MRSA [2]; [8]): 3.9 to 31.3 µg/mL; MIC50 (MRSA [2]; [8]): 7.8 µg/mL
CC[C@H]1OC(=O)[C@H](C)[C@@H](O[C@H]2C[C@@](C)(OC)[C@@H](O)[C@H](C)O2)[C@H](C)[C@@H](O[C@@H]2O[C@H](C)C[C@H](N(C)C)[C@H]2O)[C@](C)(O)C[C@@H](C)C(=O)[C@H](C)[C@@H](O)[C@]1(C)O [Erythromycin, erythromycin] |  |  |  |  |  |  |  | MIC50 (MRSA [2]; Antibiotics alone): > 250 µg/mL; MIC50 (MRSA [2]; [8]): > 250 µg/mL
COc1ccc(-c2coc3cc(O)ccc3c2=O)cc1 [Formononetin, formononetin] | > 250 µg/mL | > 250 µg/mL | > 250 µg/mL | > 250 µg/mL |  |  |  | 

More lines, main results first:

MIC50 (MSSA) | MIC (MSSA) | MIC50 (MRSA [1]) | MIC (MRSA [1]) | MIC50 (MRSA [2]; [3]) | MIC50 (MRSA [2]; [5]) | SMILES | inhibitory effect on resistance of MRSA No.5 (in words) (MRSA No. 5) | also measured
> 250 µg/mL | > 250 µg/mL | > 250 µg/mL | > 250 µg/mL |  |  | Oc1cc(O)c2c(c1)O[C@H](c1ccc(O)c(O)c1)[C@@H](O)C2 [(+)-Catechin, (+)-catechin] |  | 
 |  |  |  | 31.3 µg/mL | 31.3 µg/mL | CC1(C)S[C@@H]2[C@H](NC(=O)[C@H](N)c3ccccc3)C(=O)N2[C@H]1C(=O)O [Ampicillin, ampicillin] |  | MIC (MRSA [2]; Antibiotics alone, read-out: MIC): 2 to 125 µg/mL; MIC (MRSA [2]; [4]): 2 to 62.5 µg/mL
> 250 µg/mL | > 250 µg/mL | > 250 µg/mL | > 250 µg/mL |  |  | O=c1cc(-c2ccccc2)oc2cc(O)c(O)c(O)c12 [Baicalein, baicalein] |  | 
 |  |  |  | > 250 µg/mL | > 250 µg/mL | CO/N=C(\C(=O)N[C@@H]1C(=O)N2C(C(=O)O)=C(COC(C)=O)CS[C@H]12)c1csc(N)n1 [Cefotaxime, cefotaxime] | showed inhibitory effect on resistance of MRSA No.5 | MIC (MRSA No. 5; [6]): 1000 µM (≈ 455 µg/mL); MIC (MRSA No. 5; [7]): 7.8 µM (≈ 3.55 µg/mL)
> 250 µg/mL | > 250 µg/mL | > 250 µg/mL | > 250 µg/mL |  |  | O=c1cc(-c2ccccc2)oc2cc(O)cc(O)c12 [Chrysin, chrysin] |  | 
> 250 µg/mL | > 250 µg/mL | > 250 µg/mL | > 250 µg/mL |  |  | O=c1c(-c2ccc(O)cc2)coc2cc(O)ccc12 [Daidzein, daidzein] |  | 
